Measured values: patent publication US9439979B2, “Epidermal growth factor receptor (EGFR) and methods of use in adenoviral-associated virus type 6 (AAV6) transduction” (priority 2010, dated 2016)

What was measured:
[1] = system: HEK293T cells; format: cell-based, human; conditions: inhibitor 10 μm; for effect on AAV2 transduction of HEK293T cells: same conditions
Protocol: (§1) AAV transduction and pharmacological inhibition. The 32D and 32D-EGFR cells were transduced with 1.0E4 genomic particle (gp)/cell with each of the AAV serotypes tested. Cells were analyzed for GFP expression by FACS analysis at 96 hours posttransduction. The HEK293T, HN12 and HEp-2 cells, shown to be permissive to AAV2 and/or AAV6, were used to evaluate the specific role of EGFR in AAV-mediated transduction. Cells were incubated at 37° C. in the presence or absence of AG1478 (10 μm) or gefitnib (10 μm) for 30 minutes prior to addition of AAV. AAV2 and AAV6 containing the CMV-NLS-eGFP construct were added at a concentration of 1.0×10^4 gp/ml for 90 minutes.

[2] = system: HN12 cells; assay: AAV transduction and pharmacological inhibition in HN12 cells; format: cell-based
Protocol: (§2) In vitro transduction of HEp-2 and HN12 cells with AAV2 and AAV6 in the presence or absence of the EGFR inhibitor, AG1478, was studied. […] Transduction of HN12 cells in the presence of AG1478 was reduced by 77% (***p<0.0005, n=3).
as §1
(§3) Increased expression of EGFR correlates with aggressive head and neck squamous cell carcinoma (HNSCC) tumor growth and resistance to treatment (Thariat, J., et al., Int. J. Clin. Oncol., 12: 99-110 (2007)). The utility of AAV6 to transduce and ablate specific HNSCCs presenting with elevated EGFR expression was assessed by gene-directed enzyme prodrug therapy. Two HNSCC cell lines, HN12 and HEp-2 were selected to represent polarities of EGFR expression.

[3] = system: HEp-2 cells; assay: AAV transduction and pharmacological inhibition in HEp-2 cells; format: cell-based
Protocol: as §2, §1, §3

| Molecule | inhibition of AAV6 transduction of HEK293T cells ([1]; 30 minutes preincubation, AAV6-CMV-eGFP, FACS 48 hours) [%] | effect on AAV2 transduction of HEK293T cells [1] | reduction of AAV6 transduction of HN12 cells ([2]; in the presence of AG1478 (10 μm), FACS 96 hours) [%] | effect on AAV2-mediated transduction of HN12 cells ([2]; presence or absence of AG1478) | effect on AAV6 transduction of HEp-2 cells ([3]; in the presence of AG1478) | effect on AAV2-mediated transduction of HEp-2 cells ([3]; presence or absence of AG1478) |
| --- | --- | --- | --- | --- | --- | --- |
| AG1478 | 50 | unchanged | 77 | no significant (NS) difference | not altered | no significant (NS) difference |
| COc1cc2ncnc(Nc3ccc(F)c(Cl)c3)c2cc1OCCCN1CCOCC1 [gefitinib] | – | unchanged | – | – | – | – |
